Assay results: US11702404B2, “GLP-1R modulating compounds” (priority 2019, dated 2023)
Like-named read-outs stand apart in the source and are kept apart here.

Legend:
[1] = Microsomal stability, human liver microsomes (predicted hepatic clearance); conditions: predicted from in vitro microsomal stability data
[2] = biological target: GLP-1R (Homo sapiens, UniProt P43220); test: GLP-1R activation: cAMP increase in CHO cells stably expressing GLP-1R; assay type: cell-based
[3] = cAMP increase, CHO cells stably expressing GLP-1R, 10 point dose response, 30 minutes incubation, read-out: EC50

Sequence of GLP-1R (P43220 24-463): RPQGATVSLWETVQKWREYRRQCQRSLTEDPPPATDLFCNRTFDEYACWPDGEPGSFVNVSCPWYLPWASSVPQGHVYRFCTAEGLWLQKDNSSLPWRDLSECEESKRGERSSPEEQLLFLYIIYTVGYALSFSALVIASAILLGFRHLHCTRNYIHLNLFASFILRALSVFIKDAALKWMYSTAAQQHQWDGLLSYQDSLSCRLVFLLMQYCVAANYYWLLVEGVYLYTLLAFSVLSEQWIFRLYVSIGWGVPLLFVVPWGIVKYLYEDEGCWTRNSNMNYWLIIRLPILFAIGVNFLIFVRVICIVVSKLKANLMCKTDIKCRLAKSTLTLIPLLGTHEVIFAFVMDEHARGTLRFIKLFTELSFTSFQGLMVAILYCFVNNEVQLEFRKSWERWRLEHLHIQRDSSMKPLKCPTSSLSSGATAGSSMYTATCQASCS

| Predicted Hepatic Clearance (Pred. Cl.) [1] [mL/min/kg] | EC50 [2, 3] [nM] | Compound | EC50 ([2]; EC50 (nM)) [nM] |
| --- | --- | --- | --- |
| <1.83 | 2.19 | COCCn1c(Cc2ccc(-c3cccc(OCc4ccc(C#N)cc4F)n3)cc2F)nc2c(F)cc(C(=O)O)cc21 [Example 285, 2-(4-(6-((4-cyano-2-fluorobenzyl)oxy)pyridin-2-yl)-2-fluorobenzyl)-4-fluoro-1-(2-methoxyethyl)-1H-benzo[d]imidazole-6-carboxylic acid] |  |
| 2.62 | 21.2 | N#Cc1ccc(COc2cccc(-c3ccc(Cc4nc5ccc(C(=O)O)cc5n4CC4(CF)CC4)c(C#N)c3)n2)c(F)c1 [Example 286, 2-(2-cyano-4-(6-((4-cyano-2-fluorobenzyl)oxy)pyridin-2-yl)benzyl)-1-((1-(fluoromethyl)cyclopropyl)methyl)-1H-benzo[d]imidazole-6-carboxylic acid] |  |
| 10.5 | 0.14 | N#CCC1(Cn2c(Cc3ccc(-c4cccc(OCc5ccc(C#N)cc5F)n4)c(F)c3)nc3c(F)cc(C(=O)O)cc32)CC1 [Example 287, 2-(4-(6-((4-cyano-2-fluorobenzyl)oxy)pyridin-2-yl)-3-fluorobenzyl)-1-((1-(cyanomethyl)cyclopropyl)methyl)-4-fluoro-1H-benzo[d]imidazole-6-carboxylic acid] |  |
| 5.08 | 0.76 | N#Cc1ccc(COc2cccc(-c3ccc(Cc4nc5c(F)cc(C(=O)O)cc5n4CC4(C(F)F)CC4)cc3F)n2)c(F)c1 [Example 288, 2-(4-(6-((4-cyano-2-fluorobenzyl)oxy)pyridin-2-yl)-3-fluorobenzyl)-1-((1-(difluoromethyl)cyclopropyl)methyl)-4-fluoro-1H-benzo[d]imidazole-6-carboxylic acid] |  |
| 1.92 | 3.02 | N#Cc1ccc(COc2cccc(-c3ccc(Cc4nc5ccc(C(=O)O)cc5n4CC4(Br)CC4)c(F)c3)n2)c(F)c1 [Example 289, 1-((1-bromocyclopropyl)methyl)-2-(4-(6-((4-cyano-2-fluorobenzyl)oxy)pyridin-2-yl)-2-fluorobenzyl)-1H-benzo[d]imidazole-6-carboxylic acid] |  |
| 8.42 | 62.3 | CN(C)CC1(Cn2c(Cc3ccc(-c4cccc(OCc5ccc(C#N)cc5F)n4)cc3F)nc3ccc(C(=O)O)cc32)CC1 [Example 290, 2-(4-(6-((4-cyano-2-fluorobenzyl)oxy)pyridin-2-yl)-2-fluorobenzyl)-1-((1-((dimethylamino)methyl)cyclopropyl)methyl)-1H-benzo[d]imidazole-6-carboxylic acid] |  |
| <1.83 | 1.06 | COCCC1(Cn2c(Cc3ccc(-c4cccc(OCc5ccc(C#N)cc5F)n4)cc3F)nc3ccc(C(=O)O)cc32)CC1 [Example 291, 2-(4-(6-((4-cyano-2-fluorobenzyl)oxy)pyridin-2-yl)-2-fluorobenzyl)-1-((1-(2-methoxyethyl)cyclopropyl)methyl)-1H-benzo[d]imidazole-6-carboxylic acid] |  |
| 9.5 | 49.4 | N#Cc1ccc(COc2cccc(-c3ccc(Cc4nc5ccc(C(=O)O)cc5n4CC4(c5cccnc5)CC4)c(F)c3)n2)c(F)c1 [Example 292, 2-(4-(6-((4-cyano-2-fluorobenzyl)oxy)pyridin-2-yl)-2-fluorobenzyl)-1-((1-(pyridin-3-yl)cyclopropyl)methyl)-1H-benzo[d]imidazole-6-carboxylic acid] |  |
| <1.83 | 3.13 | N#Cc1ccc(COc2cccc(-c3ccc(Cc4nc5ccc(C(=O)O)cc5n4CC4(C5CC5)CC4)c(F)c3)n2)c(F)c1 [Example 293, 1-([1,1′-bi(cyclopropan)]-1-ylmethyl)-2-(4-(6-((4-cyano-2-fluorobenzyl)oxy)pyridin-2-yl)-2-fluorobenzyl)-1H-benzo[d]imidazole-6-carboxylic acid] |  |
| 8.3 | 2.12 | CC(C)(Cn1c(Cc2ccc(-c3cccc(OCc4ccc(C#N)cc4F)n3)c(F)c2)nc2ccc(C(=O)O)cc21)C(F)F [Example 295, 2-(4-(6-((4-cyano-2-fluorobenzyl)oxy)pyridin-2-yl)-3-fluorobenzyl)-1-(3,3-difluoro-2,2-dimethylpropyl)-1H-benzo[d]imidazole-6-carboxylic acid] |  |
| 5.33 | 0.08 | N#CCC1(Cn2c(Cc3ccc(-c4cccc(OCc5ccc(C#N)cc5F)n4)cc3F)nc3c(F)cc(C(=O)O)cc32)CC1 [Example 296, 2-(4-(6-((4-cyano-2-fluorobenzyl)oxy)pyridin-2-yl)-2-fluorobenzyl)-1-((1-(cyanomethyl)cyclopropyl)methyl)-4-fluoro-1H-benzo[d]imidazole-6-carboxylic acid] |  |
| 2.5 | 1.71 | N#Cc1ccc(COc2cccc(-c3ccc(Cc4nc5c(F)cc(C(=O)O)cc5n4CC4(C(F)F)CC4)c(F)c3)n2)c(F)c1 [Example 297, 2-(4-(6-((4-cyano-2-fluorobenzyl)oxy)pyridin-2-yl)-2-fluorobenzyl)-1-((1-(difluoromethyl)cyclopropyl)methyl)-4-fluoro-1H-benzo[d]imidazole-6-carboxylic acid] |  |
| <1.83 | 4.75 | N#Cc1ccc(COc2nccc(-c3cc(F)c(Cc4nc5ccc(C(=O)O)nc5n4CC4(CF)CC4)c(F)c3)n2)c(F)c1 [Example 298, 2-(4-(2-((4-cyano-2-fluorobenzyl)oxy)pyrimidin-4-yl)-2,6-difluorobenzyl)-3-((1-(fluoromethyl)cyclopropyl)methyl)-3H-imidazo[4,5-b]pyridine-5-carboxylic acid] |  |
| 5.17 | 0.4 | N#Cc1ccc(COc2nccc(-c3ccc(Cc4nc5c(F)cc(C(=O)O)cc5n4CC4(CF)CC4)cc3F)n2)c(F)c1 [Example 299, 2-(4-(2-((4-cyano-2-fluorobenzyl)oxy)pyrimidin-4-yl)-3-fluorobenzyl)-4-fluoro-1-((1-(fluoromethyl)cyclopropyl)methyl)-1H-benzo[d]imidazole-6-carboxylic acid] |  |
| <1.83 | 0.68 | N#CCC1(Cn2c(Cc3ccc(-c4ccnc(OCc5ccc(C#N)cc5F)n4)c(F)c3)nc3ccc(C(=O)O)nc32)CC1 [Example 300, 2-(4-(2-((4-cyano-2-fluorobenzyl)oxy)pyrimidin-4-yl)-3-fluorobenzyl)-3-((1-(cyanomethyl)cyclopropyl)methyl)-3H-imidazo[4,5-b]pyridine-5-carboxylic acid] |  |
| 2.67 | 1.21 | N#Cc1ccc(COc2nccc(-c3ccc(Cc4nc5ccc(C(=O)O)nc5n4CC4(CF)CC4)cc3F)n2)c(F)c1 [Example 302, 2-(4-(2-((4-cyano-2-fluorobenzyl)oxy)pyrimidin-4-yl)-3-fluorobenzyl)-3-((1-(fluoromethyl)cyclopropyl)methyl)-3H-imidazo[4,5-b]pyridine-5-carboxylic acid] |  |
| 4 | 1.33 | N#CCC1(Cn2c(Cc3ccc(-c4ccnc(OCc5ccc(C#N)cc5F)n4)c(F)c3)nc3c(F)cc(C(=O)O)cc32)CC1 [Example 303, 2-(4-(2-((4-cyano-2-fluorobenzyl)oxy)pyrimidin-4-yl)-3-fluorobenzyl)-1-((1-(cyanomethyl)cyclopropyl)methyl)-4-fluoro-1H-benzo[d]imidazole-6-carboxylic acid] |  |
| 5.33 | 0.5 | COCCn1c(Cc2cc(F)c(-c3cccc(OCc4ccc(C#N)cc4F)n3)cc2Cl)nc2ccc(C(=O)O)cc21 [Example 304, 2-(2-chloro-4-(6-((4-cyano-2-fluorobenzyl)oxy)pyridin-2-yl)-5-fluorobenzyl)-1-(2-methoxyethyl)-1H-benzo[d]imidazole-6-carboxylic acid] |  |
| 4.67 | 1.25 | N#CCCn1c(Cc2cc(F)c(-c3cccc(OCc4ccc(C#N)cc4F)n3)cc2F)nc2ccc(C(=O)O)cc21 [Example 305, 2-(4-(6-((4-cyano-2-fluorobenzyl)oxy)pyridin-2-yl)-2,5-difluorobenzyl)-1-(2-cyanoethyl)-1H-benzo[d]imidazole-6-carboxylic acid] |  |
| 5.33 | 7.96 | N#Cc1ccc(COc2cccc(-c3cc(F)c(Cc4nc5ccc(C(=O)O)cc5n4CC4COC4)cc3F)n2)c(F)c1 [Example 307, 2-(4-(6-((4-cyano-2-fluorobenzyl)oxy)pyridin-2-yl)-2,5-difluorobenzyl)-1-(oxetan-3-ylmethyl)-1H-benzo[d]imidazole-6-carboxylic acid] |  |
| 5.83 | 1.26 | N#Cc1ccc(COc2cccc(-c3cc(F)c(Cc4nc5ccc(C(=O)O)cc5n4CC4(C(F)F)COC4)cc3F)n2)c(F)c1 [Example 308, 2-(4-(6-((4-cyano-2-fluorobenzyl)oxy)pyridin-2-yl)-2,5-difluorobenzyl)-1-((3-(difluoromethyl)oxetan-3-yl)methyl)-1H-benzo[d]imidazole-6-carboxylic acid] |  |

| Compound | Predicted Hepatic Clearance (Pred. Cl.) [1] [mL/min/kg] | EC50 [2, 3] [nM] | EC50 ([2]; EC50 (nM)) [nM] |
| --- | --- | --- | --- |
| CC(C)(CF)Cn1c(Cc2ccc(-c3cccc(OCc4ccc(C#N)cc4F)n3)c(F)c2)nc2ccc(C(=O)O)cc21 [Example 294, 2-(4-(6-((4-cyano-2-fluorobenzyl)oxy)pyridin-2-yl)-3-fluorobenzyl)-1-(3-fluoro-2,2-dimethylpropyl)-1H-benzo[d]imidazole-6-carboxylic acid] | 8.3 |  | 0.75 |
| COCCn1c(Cc2cc(F)c(-c3cccc(OCc4ccc(C#N)cc4F)n3)cc2F)nc2c(F)cc(C(=O)O)cc21 [Example 301, 2-(4-(6-((4-cyano-2-fluorobenzyl)oxy)pyridin-2-yl)-2,5-difluorobenzyl)-4-fluoro-1-(2-methoxyethyl)-1H-benzo[d]imidazole-6-carboxylic acid] | 5.05 |  | 0.73 |
